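Grown in 96-well plates, cells were treated for 48 hours with each compound at five concentrations. Insufficient inhibition: endpoint recorded as highest concentration tested. GI50 = concentration required for 50% inhibition of growth. TGI: total growth inhibition.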
Legend:
Experiment in all cases: DTP human tumour cell line panel, 48 h
CAKI-1 renal = test system: CAKI-1 renal
A549 NSCLC = test system: A549 NSCLC
SW-620 colon = test system: SW-620 colon
HCT-116 colon = test system: HCT-116 colon
SK-MEL-28 melanoma = test system: SK-MEL-28 melanoma
MOLT-4 leukemia = test system: MOLT-4 leukemia
NCI-H522 lung = test system: NCI-H522 lung
DU-145 prostate = test system: DU-145 prostate
SK-MEL-2 melanoma = test system: SK-MEL-2 melanoma
786-0 renal = test system: 786-0 renal

## NC1=Nc2cc(OCCCN3Cc4ccccc4C3)c(OCC3CC3)cc2C12CCCC2
CAKI-1 renal
  GI50: 2.31 µM
  TGI: 11.3 µM
A549 NSCLC
  GI50: 3.99 µM
  TGI: 13.5 µM
SW-620 colon
  GI50: 2.07 µM
  TGI: 4.88 µM
HCT-116 colon
  GI50: 1.61 µM
  TGI: 3.49 µM
SK-MEL-28 melanoma
  GI50: 1.84 µM
  TGI: 3.46 µM
MOLT-4 leukemia
  GI50: 2.17 µM
  TGI: 6.22 µM
NCI-H522 lung
  GI50: 2.25 µM
  TGI: 4.87 µM
DU-145 prostate
  GI50: 4.44 µM
  TGI: 16.2 µM
SK-MEL-2 melanoma
  GI50: 2.35 µM
  TGI: 4.7 µM
786-0 renal
  GI50: 1.69 µM
  TGI: 3.77 µM

## Fc1ccc2[nH]cc(SSc3c[nH]c4ccc(F)cc34)c2c1
CAKI-1 renal
  GI50: 3.52 µM
  TGI: 21.7 µM
A549 NSCLC
  GI50: 4.98 µM
  TGI: 87.7 µM
SW-620 colon
  GI50: 8.22 µM
  TGI: 26 µM
HCT-116 colon
  GI50: 3.98 µM
  TGI: > 100 µM
SK-MEL-28 melanoma
  GI50: 5.71 µM
  TGI: 20.3 µM
MOLT-4 leukemia
  GI50: 2.71 µM
  TGI: 33.4 µM
NCI-H522 lung
  GI50: 2.48 µM
  TGI: 7.67 µM
DU-145 prostate
  GI50: 11.6 µM
  TGI: 31.1 µM
SK-MEL-2 melanoma
  GI50: 3.62 µM
  TGI: 17 µM
786-0 renal
  GI50: 6.8 µM
  TGI: 24.8 µM

## COc1ccccc1-c1cc(=O)c2ccc(OC)c(OC)c2o1
CAKI-1 renal
  TGI: > 100 µM
A549 NSCLC
  TGI: > 100 µM
SW-620 colon
  TGI: > 100 µM
HCT-116 colon
  TGI: > 100 µM
SK-MEL-28 melanoma
  TGI: > 100 µM
MOLT-4 leukemia
  TGI: > 100 µM
NCI-H522 lung
  TGI: > 100 µM
DU-145 prostate
  TGI: > 100 µM
SK-MEL-2 melanoma
  TGI: > 100 µM
786-0 renal
  TGI: > 100 µM

## C=C1C(=O)O[C@H]2[C@H]1CC/C(Cn1cc(-c3cc(C)c(C)cc3C)nn1)=C\CC[C@@]1(C)O[C@@H]21
CAKI-1 renal
  GI50: 1.08 µM
  TGI: 2.39 µM
A549 NSCLC
  GI50: 1.73 µM
  TGI: 4.31 µM
SW-620 colon
  GI50: 0.424 µM
  TGI: 1.54 µM
HCT-116 colon
  GI50: 0.336 µM
  TGI: 1.06 µM
SK-MEL-28 melanoma
  GI50: 1.4 µM
  TGI: 2.89 µM
MOLT-4 leukemia
  GI50: 2.38 µM
  TGI: 7.34 µM
NCI-H522 lung
  GI50: 0.282 µM
  TGI: 1.17 µM
DU-145 prostate
  GI50: 1.35 µM
  TGI: 2.63 µM
SK-MEL-2 melanoma
  GI50: 1.75 µM
  TGI: 3.59 µM
786-0 renal
  GI50: 1.5 µM
  TGI: 3.18 µM

## COc1cc(OC)c(C(=O)/C=C/c2cccc(OC(C)=O)c2)cc1CC=C(C)C
CAKI-1 renal
  GI50: 23.2 µM
  TGI: > 50 µM
A549 NSCLC
  GI50: 15.2 µM
  TGI: > 50 µM
SW-620 colon
  GI50: 7.02 µM
  TGI: 18.5 µM
HCT-116 colon
  GI50: 3 µM
  TGI: 9.78 µM
SK-MEL-28 melanoma
  GI50: 9.52 µM
  TGI: 22.2 µM
MOLT-4 leukemia
  GI50: 7.64 µM
  TGI: 43.6 µM
NCI-H522 lung
  GI50: 8.76 µM
  TGI: 22.2 µM
DU-145 prostate
  GI50: 6.18 µM
  TGI: 14.6 µM
SK-MEL-2 melanoma
  GI50: 8.9 µM
  TGI: 35.6 µM
786-0 renal
  GI50: 9.85 µM
  TGI: 19.8 µM

## CCNCCCn1c2c(c3ccc([N+](=O)[O-])cc3c1=O)C(=O)c1cc(OC)cnc1-2
CAKI-1 renal
  GI50: 0.0406 µM
  TGI: 2.3 µM
A549 NSCLC
  GI50: 0.0776 µM
  TGI: 0.296 µM
SW-620 colon
  GI50: 0.0653 µM
  TGI: 3.57 µM
SK-MEL-28 melanoma
  GI50: 0.227 µM
  TGI: 1.56 µM
MOLT-4 leukemia
  GI50: 0.029 µM
  TGI: 0.25 µM
NCI-H522 lung
  GI50: 0.0361 µM
  TGI: 0.898 µM
DU-145 prostate
  GI50: 0.0558 µM
  TGI: 1.16 µM
SK-MEL-2 melanoma
  GI50: 0.349 µM
  TGI: 1.9 µM
786-0 renal
  GI50: 0.0406 µM
  TGI: 0.31 µM

## C=CC1=C(C)C2=NC1=CC1=NC(=CC3=C(C)C4=C(O)C(C(=O)OC)C(=C5NC(=C2)C(C)C5CCC(=O)OC)C4=N3)C(CC)=C1C (stereo not given)
CAKI-1 renal
  TGI: > 100 µM
A549 NSCLC
  TGI: > 100 µM
SW-620 colon
  TGI: > 100 µM
HCT-116 colon
  TGI: > 100 µM
SK-MEL-28 melanoma
  TGI: > 100 µM
NCI-H522 lung
  TGI: > 100 µM
DU-145 prostate
  TGI: > 100 µM
SK-MEL-2 melanoma
  TGI: > 100 µM
786-0 renal
  TGI: > 100 µM

## Cc1[nH]nc2c1N=C(c1ccccc1Cl)c1cc([N+](=O)[O-])ccc1N2
CAKI-1 renal
  GI50: 2.12 µM
  TGI: > 22.2 µM
SW-620 colon
  GI50: 0.14 µM
  TGI: > 25 µM
HCT-116 colon
  GI50: 0.337 µM
  TGI: > 25 µM
SK-MEL-28 melanoma
  GI50: > 25 µM
  TGI: > 25 µM
MOLT-4 leukemia
  GI50: 14.8 µM
  TGI: > 25 µM
NCI-H522 lung
  GI50: 0.139 µM
  TGI: > 25 µM
DU-145 prostate
  GI50: 0.891 µM
  TGI: > 25 µM
SK-MEL-2 melanoma
  GI50: 0.126 µM
  TGI: > 25 µM
786-0 renal
  GI50: 1.35 µM
  TGI: > 17.1 µM

## Cc1ccc(Sc2sc(-c3ccccc3)nc2[P+](c2ccccc2)(c2ccccc2)c2ccccc2)cc1
CAKI-1 renal
  GI50: 0.329 µM
  TGI: 1.04 µM
SW-620 colon
  GI50: 0.319 µM
  TGI: 1.26 µM
HCT-116 colon
  GI50: 0.246 µM
  TGI: 1.11 µM
SK-MEL-28 melanoma
  GI50: 0.605 µM
  TGI: 1.88 µM
MOLT-4 leukemia
  GI50: 0.363 µM
  TGI: 1.59 µM
NCI-H522 lung
  GI50: 0.306 µM
  TGI: 1.25 µM
DU-145 prostate
  GI50: 0.379 µM
  TGI: 1.37 µM
SK-MEL-2 melanoma
  GI50: 0.275 µM
  TGI: 0.808 µM
786-0 renal
  GI50: 0.381 µM
  TGI: 1.45 µM

## CC(=O)OC1Oc2ccccc2-c2oc(=O)c(-c3cc4ccccc4oc3=O)cc21 (stereo not given)
CAKI-1 renal
  GI50: 26.9 µM
  TGI: 66.1 µM
A549 NSCLC
  GI50: 15.4 µM
  TGI: 33 µM
SW-620 colon
  GI50: 65 µM
  TGI: > 100 µM
SK-MEL-28 melanoma
  GI50: 32.7 µM
  TGI: 87.3 µM
MOLT-4 leukemia
  GI50: 25.4 µM
  TGI: 81.8 µM
NCI-H522 lung
  GI50: 18.5 µM
  TGI: 36.3 µM
DU-145 prostate
  GI50: 20.1 µM
  TGI: 52.5 µM
SK-MEL-2 melanoma
  GI50: 35 µM
  TGI: > 100 µM
786-0 renal
  GI50: 16.6 µM
  TGI: 31.3 µM

## O=C1CS/C(=N\S(=O)(=O)c2ccc(N3N=C4c5ccccc5CC4C3c3ccc(Cl)cc3)cc2)N1c1ccccc1 (stereo not given)
CAKI-1 renal
  GI50: 35.8 µM
  TGI: > 100 µM
A549 NSCLC
  GI50: 24.2 µM
  TGI: 65.8 µM
SW-620 colon
  GI50: 37.4 µM
  TGI: > 100 µM
HCT-116 colon
  GI50: 38.7 µM
  TGI: > 100 µM
MOLT-4 leukemia
  GI50: 17.2 µM
  TGI: 40.7 µM
NCI-H522 lung
  GI50: 36.7 µM
  TGI: > 100 µM
DU-145 prostate
  GI50: 33.9 µM
  TGI: > 100 µM
SK-MEL-2 melanoma
  GI50: > 100 µM
  TGI: > 100 µM
786-0 renal
  GI50: 46.6 µM
  TGI: > 100 µM

## CCSc1nnc(-c2ccc3ccccc3c2O)n1-c1ccc(Cl)cc1
CAKI-1 renal
  GI50: 6.85 µM
  TGI: > 100 µM
A549 NSCLC
  GI50: 4.51 µM
  TGI: > 100 µM
SW-620 colon
  GI50: 4.28 µM
  TGI: > 100 µM
HCT-116 colon
  GI50: 4 µM
  TGI: > 100 µM
SK-MEL-28 melanoma
  GI50: > 100 µM
  TGI: > 100 µM
NCI-H522 lung
  GI50: 5.15 µM
  TGI: > 100 µM
DU-145 prostate
  GI50: 13.1 µM
  TGI: > 100 µM
SK-MEL-2 melanoma
  GI50: > 100 µM
  TGI: > 100 µM
786-0 renal
  GI50: 60.3 µM
  TGI: > 100 µM

## Clc1ccc(Nc2ccnc(NCCCNc3ccnc4cc(Cl)ccc34)n2)cc1
CAKI-1 renal
  GI50: 1.43 µM
  TGI: 2.83 µM
A549 NSCLC
  GI50: 1.73 µM
  TGI: 3.35 µM
SW-620 colon
  GI50: 1.49 µM
  TGI: 3.11 µM
HCT-116 colon
  GI50: 1.42 µM
  TGI: 3.1 µM
SK-MEL-28 melanoma
  GI50: 1.64 µM
  TGI: 3.07 µM
NCI-H522 lung
  GI50: 1.95 µM
  TGI: 3.68 µM
DU-145 prostate
  GI50: 1.86 µM
  TGI: 3.35 µM
SK-MEL-2 melanoma
  GI50: 1.98 µM
  TGI: 3.61 µM
786-0 renal
  GI50: 1.73 µM
  TGI: 3.33 µM
